Several values for one entry are separate records, joined by “and”; a condition that tells them apart may be missing. Identical values can stand only once.
Legend:
[1] = Measurement of maximum absorption wavelength, maximum fluorescence wavelength and fluorescence quantum yield in solvents; assay type: physicochemical
Experimental: Using a luminescent quantum yield measurement apparatus ([…]-01, manufactured by Hamamatsu Photonics K.K.), the maximum absorption wavelength (λabs/nm), the maximum fluorescence wavelength (λflu/nm), and the fluorescence quantum yield (Φf) of the compound in each solvent were measured. The absorption spectrum was measured using an ultraviolet and visible spectrophotometer (Ubest-550, manufactured by JASCO Corporation), and the fluorescence emission spectrum was measured using a fluorescence spectrophotometer (F-7000, manufactured by Hitachi, Ltd.)

[2] = Measurement of fluorescence lifetime in solvents; assay type: physicochemical
Experimental: The fluorescence lifetime (τf) of each compound in each solvent was measured using a compact fluorescence lifetime measurement apparatus (Quntaurus-Tau, manufactured by Hamamatsu Photonics K.K.).

[3] = system: lipid droplets in HeLa cells; assay: Fluorescence imaging of lipid droplets in oleic acid-treated HeLa cells; assay type: cell-based
From the text: Since LipiDye requires use of an excitation wavelength of about 405 nm, there is a concern about phototoxicity to cells in cases of long observation.

[4] = system: 3T3-L1 cells (adipocytes); assay: Intracellular photostability under excitation light in 3T3-L1 cells; assay type: cell-based
Experimental: (§1) Using a fluorescence microscope (IX71, manufactured by Olympus Corporation), fluorescence imaging images of cells were acquired over time, and the photostability (It/I0) and the retention property were measured.
The photostability and the retention property are important factors in long-term measurement for, for example, tracing the processes of formation, fusion, and degradation of lipid droplets. Each fluorescent reagent was added to 3T3-L1 cells (adipocytes) to a final concentration of 100 nM, and the cells were cultured for 30 minutes. After washing the cells, the cells were irradiated with an excitation light required for imaging (450 to 500 nm; for LipiDye, an excitation wavelength of 400 to 440 nm), to evaluate the photostability. By regarding the time immediately after the irradiation as Second 0, imaging images were acquired at 20-second intervals for analysis of the image intensity.

[5] = system: 3T3-L1 cells (adipocytes); assay: Intracellular retention property in 3T3-L1 cells; assay type: cell-based
Experimental: as §1
For evaluation of the intracellular retention property of each reagent, each fluorescent reagent was added to 3T3-L1 cells (adipocytes) to a final concentration of 100 nM (for Lipi-Green, 500 nM), and imaging images were acquired after 30 minutes of culture and 24 hours after washing away of the reagent.

[6] = Solubility / precipitation in water (physiological saline); assay type: physicochemical
[7] = system: adipose tissue and lipid droplets; assay: Fluorescence imaging of adipose tissues and lipid droplets in a mouse; assay type: in vivo, mouse (BALB/cAJcl); settings: 50 nmol
Experimental: Fluorescence imaging of lipid droplets in a body tissue, and of an adipose tissue, using PC6S is described below. […] Therefore, PC6S cannot be administered to mice. In view of this, 5 mM stock solution was added (at 10% in terms of the volume ratio) to physiological saline supplemented with 10% bovine serum albumin. […] Regarding administration of MNs-NB, a stock solution in DMSO is directly administered to mice. Since administration of DMSO may cause death of mice from shock, the administration method in the present invention is thought to be a safer method. Here, 100 to 200 μL of 500 μM solution (50 to 100 nmol) was administered to the tail vein of a mouse under anesthesia, and a fluorescence imaging experiment was carried out using a confocal laser microscope (excitation wavelength, 488 nm; monitoring wavelength, 510 to 560 nm). In the present experiment, a microscope capable of acquiring fluorescence lifetime images as well as fluorescence intensity images (FLIM: fluorescence lifetime imaging microscope) (Simple-Tau-150-DX; Becker & Hickl) was used. The animal experiment was carried out in accordance with the animal experiment safety regulations in Gunma University.
In an individual, various adipose tissues and lipid droplets are present. Their imaging was carried out using PC6S. […]

[8] = system: lipid droplets in a body tissue and adipose tissue; assay: Non-laparotomic imaging of lipid droplets in a fatty-liver model nude mouse; assay type: in vivo; settings: 50 nmol, tail vein
Experimental: Non-laparotomic imaging of lipid droplets in a body tissue, and of an adipose tissue, using PC6S is described below. A nude mouse was fed with a high-fat diet for 2 weeks to prepare a fatty-liver model mouse. PC6S (50 nmol) was administered from the tail vein of the nude mouse under anesthesia. Images were taken using a simple in vivo imaging device (Discovery (registered trademark); INDEC BioSystem) (for the nude mice lying on its back). An excitation wavelength of 450 to 490 nm and a monitoring wavelength of 520 nm or higher were employed. […] In order to confirm that the fluorescence was found from the liver, an image was taken after laparotomy. […] It was thus shown that the fluorescence imaging reagent of the present invention is useful even without laparotomy.

fixed HeLa cells = assay: Fluorescence imaging of fixed HeLa cells; assay type: cell-based; settings: 100 nM, 30 minutes, HeLa fixed in 4% paraformaldehyde-phosphate buffer
Experimental: The fluorescence imaging reagent of the present invention is applicable to, and allows the detection in, unfixed biological samples and living bodies. The reagent is, however, also useful for fixed samples. HeLa cells cultured in the presence of 400 μM oleic acid for 48 hours were fixed in 4% paraformaldehyde-phosphate buffer for 20 minutes, and PC6S was added thereto to a final concentration of 100 nM, followed by performing culture for 30 minutes, washing the cultured cells, and then acquiring a fluorescence imaging image using an inverted fluorescence microscope in the same manner as in Example 2.

CCN(CC)c1ccc2cc3cc(-c4nc5ccccc5s4)c(=O)oc3cc2c1 [PC6S, 3-(Benzo[d]thiazol-2-yl)-8-(diethylamino)-2H-benzo[g]chromen-2-one]
Φf (fluorescence quantum yield) ([1]; in Bu2O (dibutyl ether)): 0.88 | λmax abs (maximum absorption wavelength) ([1]; in Bu2O (dibutyl ether)): 468 nm | λmax flu (maximum fluorescence wavelength) ([1]; in Bu2O (dibutyl ether)): 538 nm | Φf (fluorescence quantum yield) ([1]; in DMSO): 0.83 | λmax abs (maximum absorption wavelength) ([1]; in DMSO): 504 nm | λmax flu (maximum fluorescence wavelength) ([1]; in DMSO): 642 nm | Φf (fluorescence quantum yield) ([1]; in EtOAc): 0.84 | λmax abs (maximum absorption wavelength) ([1]; in EtOAc): 483 nm | λmax flu (maximum fluorescence wavelength) ([1]; in EtOAc): 585 nm | Φf (fluorescence quantum yield) ([1]; in MeCN): 0.80 | λmax abs (maximum absorption wavelength) ([1]; in MeCN): 492 nm and 493 nm | λmax flu (maximum fluorescence wavelength) ([1]; in MeCN): 625 nm | fluorescence quantum yield ([1]; in any of the solvents of Table 1): not less than 0.8 | Φf (fluorescence quantum yield) ([1]; in n-Hexane): 0.89 | λmax abs (maximum absorption wavelength) ([1]; in n-Hexane): 455 nm | λmax flu (maximum fluorescence wavelength) ([1]; in n-Hexane): 498 nm | τf (fluorescence lifetime) ([2]; in Bu2O (dibutyl ether)): 2.91 ns | τf (fluorescence lifetime) ([2]; in DMSO): 3.46 ns | τf (fluorescence lifetime) ([2]; in EtOAc): 3.41 ns | τf (fluorescence lifetime) ([2]; in MeCN): 3.72 ns | τf (fluorescence lifetime) ([2]; in n-Hexane): 2.55 ns | imaging of lipid droplets / lipid droplet selectivity in HeLa cells ([3]; 100 nM reagent, 30 minutes, 400 μM oleic acid 48 hours): capable of clear imaging of lipid droplets | fluorescence intensity of HeLa cells ([3]; 100 nM reagent, 30 minutes, compared with BODIPY493/503 or Lipi Green): higher fluorescence intensities | Brightness in cells ([3]; summary grade, Table 3): ⊚ | Selectivity for lipid droplets ([3]; summary grade, Table 3): ◯ | photostability (fluorescence intensity ratio It/I0 against irradiation time) ([4]; 100 nM, 3T3-L1 cells, relative to the commercially available reagents): highest photostability | Photostability ([4]; summary grade, Table 3): ⊚ | intracellular retention property ([5]; 100 nM (Lipi-Green 500 nM), 3T3-L1 cells, 24 hours after washing away of the reagent): high intracellular retention properties | intracellular retention property ([5]; summary grade, Table 3): ⊚ | solubility in water (physiological saline) [6]: remarkably low solubility | precipitation ([6]; 5 mM stock solution added at 10% volume ratio to physiological saline supplemented with 10% bovine serum albumin): precipitation of PC6S could be suppressed | precipitation ([6]; 5 mM stock solution in DMSO added at 10% volume ratio to physiological saline): precipitation of PC6S occurs | fluorescence imaging of kidney [7]: small lipid droplets distributed in tubular cells could be imaged | fluorescence imaging of subcutaneous, abdominal, pericardial adipose tissue, skeletal muscle, cardiac muscle, kidney [7]: Fluorescence derived from PC6S was found from sites containing lipid accumulated therein | laparotomic imaging ([8]; after laparotomy): Fluorescence derived from PC6S was found in the liver | non-laparotomic imaging ([8]; without laparotomy): Fluorescence derived from PC6S was found around the liver | fluorescence detection in fixed cells (fixed HeLa cells): fluorescence of PC6S could be detected also in the fixed HeLa cells
